Measured values as given in ChEMBL document CHEMBL1158338, “Synthesis of (+/-)Abyssinone I and related compounds: Their anti-oxidant and cytotoxic activities” (Eur J Med Chem, 2009).
Activity calls are given as the source filed them.

How the values were obtained:
[1] = Antioxidant activity assessed as ferric ion reducing activity at 200 ug after 20 mins by UV-visible spectrophotometry; format: functional
MCF7 = experiment: Cytotoxicity against human MCF7 cells at 25 to 150 uM after 72 hrs by MTT assay; format: functional, cell-based
[2] = system: Radical scavenging activity; experiment: Antioxidant activity assessed as DPPH radical scavenging activity at 200 ug after 30 mins by UV-visible spectrophotometry; format: functional

Measured: Activity

CC(C)=CCc1cc(C2CC(=O)c3ccc(O)cc3O2)ccc1O (centres undefined)
active: [1] | MCF7 | [2]

COc1ccc(C2CC(=O)c3ccc(O)cc3O2)cc1 (centres undefined)
active: [1] | MCF7 | [2]

COc1ccc(/C=C/C(=O)c2ccc(O)cc2O)cc1
active: [1] | MCF7 | [2]

CC(C)=CCc1cc(/C=C/C(=O)c2ccc(O)cc2O)ccc1O
active: [1] | MCF7 | [2]

CC1(C)C=Cc2cc(C3CC(=O)c4ccc(O)cc4O3)ccc2O1 (centres undefined)
active: [1] | MCF7 | [2]

COc1ccc(/C=C/C(=O)c2ccc(O)cc2O)cc1CC=C(C)C
active: [1] | MCF7 | [2]

CC1(C)C=Cc2cc(/C=C/C(=O)c3ccc(O)cc3O)ccc2O1
active: [1] | MCF7 | [2]

COc1ccc(C2CC(=O)c3ccc(O)cc3O2)cc1CC=C(C)C (centres undefined)
active: [1] | MCF7 | [2]

O=C1C[C@@H](c2ccc(O)cc2)Oc2cc(O)ccc21
active: [1] | MCF7 | [2]

CC(C)=CCOc1ccc(/C=C/C(=O)c2ccc(O)cc2O)cc1
active: [1] | MCF7 | [2]

O=C(/C=C/c1ccc(O)cc1)c1ccc(O)cc1O
active: [1] | MCF7 | [2]

CC1(C)CCc2cc(/C=C/C(=O)c3ccc(O)cc3O)ccc2O1
active: [1] | MCF7 | [2]

CC1(C)CCc2cc(C3CC(=O)c4ccc(O)cc4O3)ccc2O1 (centres undefined)
active: [1] | MCF7 | [2]
